Assay results as given in article PMC6199309, “A therapeutic approach to pantothenate kinase associated neurodegeneration” (Nature Communications, 2018).

Key:
ZAK = target: T1, ZAK (Homo sapiens, UniProt Q9NYL2); test: KINOMEscan; format: binding; settings: read-out: %Ctrl @ 10000nM
T1 construct: purchased DiscoverX scanMAX; host or cells: E. coli BL21-derived host (T7 phage) or HEK-293

ASK1 = target: T2, ASK1 (Homo sapiens, UniProt Q99683); test: KINOMEscan; format: binding; settings: read-out: %Ctrl @ 10000nM
T2 construct: purchased DiscoverX KINOMEscan

FLT1 = target: T3, FLT1 (Homo sapiens, UniProt P17948); test: KINOMEscan; format: binding; settings: read-out: %Ctrl @ 10000nM
T3 construct: purchased DiscoverX KINOMEscan

TRKB = target: T4, TRKB (Homo sapiens, UniProt Q16620); test: KINOMEscan; format: binding; settings: read-out: %Ctrl @ 10000nM
T4 construct: purchased DiscoverX KINOMEscan

p38-delta = target: T5, p38-delta (Homo sapiens, UniProt O15264); test: KINOMEscan; format: binding; settings: read-out: %Ctrl @ 10000nM
T5 construct: purchased DiscoverX KINOMEscan
T5 sequence (O15264 whole entry): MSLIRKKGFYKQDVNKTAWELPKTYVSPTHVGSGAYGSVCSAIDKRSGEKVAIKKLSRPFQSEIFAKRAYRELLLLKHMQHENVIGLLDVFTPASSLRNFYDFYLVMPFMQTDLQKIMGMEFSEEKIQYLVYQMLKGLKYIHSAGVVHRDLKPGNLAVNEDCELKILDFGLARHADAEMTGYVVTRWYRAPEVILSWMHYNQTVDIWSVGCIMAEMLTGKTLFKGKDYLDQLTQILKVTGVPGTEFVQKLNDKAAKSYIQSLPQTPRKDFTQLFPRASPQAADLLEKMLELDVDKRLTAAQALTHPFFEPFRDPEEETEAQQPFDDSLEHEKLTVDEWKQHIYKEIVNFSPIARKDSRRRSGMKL

[1] = target: T6, TYK2(JH2domain-pseudokinase) (Homo sapiens, UniProt P29597); test: KINOMEscan; format: binding; settings: read-out: %Ctrl @ 10000nM
T6 construct: TYK2(JH2domain-pseudokinase); DNA label for qPCR (T7 phage fusion or DNA tag); purchased DiscoverX scanMAX; host or cells: E. coli BL21-derived (T7 phage) or HEK-293

CAMK4 = target: T7, CAMK4 (Homo sapiens, UniProt Q16566); test: KINOMEscan; format: binding; settings: read-out: %Ctrl @ 10000nM
T7 construct: purchased DiscoverX KINOMEscan

INSRR = target: T8, INSRR (Homo sapiens, UniProt P14616); test: KINOMEscan; format: binding; settings: read-out: %Ctrl @ 10000nM
T8 construct: purchased DiscoverX KINOMEscan

ACVR2B = target: T9, ACVR2B (Homo sapiens, UniProt Q13705); test: KINOMEscan; format: binding; settings: read-out: %Ctrl @ 10000nM
T9 construct: purchased DiscoverX KINOMEscan

SGK3 = target: T10, SGK3 (Homo sapiens, UniProt Q96BR1); test: KINOMEscan; format: binding; settings: read-out: %Ctrl @ 10000nM
T10 construct: purchased DiscoverX KINOMEscan
T10 sequence (Q96BR1 whole entry): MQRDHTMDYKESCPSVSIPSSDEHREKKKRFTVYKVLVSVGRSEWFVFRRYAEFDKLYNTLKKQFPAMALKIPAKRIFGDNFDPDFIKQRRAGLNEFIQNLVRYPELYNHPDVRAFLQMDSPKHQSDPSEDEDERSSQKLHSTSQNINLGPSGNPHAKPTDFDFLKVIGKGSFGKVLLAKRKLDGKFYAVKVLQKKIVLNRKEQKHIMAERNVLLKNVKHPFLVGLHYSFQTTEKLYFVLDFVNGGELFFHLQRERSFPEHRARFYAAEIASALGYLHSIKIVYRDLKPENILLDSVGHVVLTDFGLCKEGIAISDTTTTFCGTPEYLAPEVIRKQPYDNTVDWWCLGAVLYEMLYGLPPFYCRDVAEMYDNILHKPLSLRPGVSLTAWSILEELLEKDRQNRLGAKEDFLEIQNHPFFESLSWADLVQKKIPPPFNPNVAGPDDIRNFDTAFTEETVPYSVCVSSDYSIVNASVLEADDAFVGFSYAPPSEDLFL

EPHB2 = target: T11, EPHB2 (Homo sapiens, UniProt P29323); test: KINOMEscan; format: binding; settings: read-out: %Ctrl @ 10000nM
T11 construct: purchased DiscoverX KINOMEscan

EPHB6 = target: T12, EPHB6 (Homo sapiens, UniProt O15197); test: KINOMEscan; format: binding; settings: read-out: %Ctrl @ 10000nM
T12 construct: purchased DiscoverX KINOMEscan

CDC2L1 = target: T13, CDC2L1 (Homo sapiens, UniProt P21127); test: KINOMEscan; format: binding; settings: read-out: %Ctrl @ 10000nM
T13 construct: purchased DiscoverX KINOMEscan

TAOK3 = target: T14, TAOK3 (Homo sapiens, UniProt Q9H2K8); test: KINOMEscan; format: binding; settings: read-out: %Ctrl @ 10000nM
T14 construct: purchased DiscoverX KINOMEscan

CAMK2A = target: T15, CAMK2A (Homo sapiens, UniProt Q9UQM7); test: KINOMEscan; format: binding; settings: read-out: %Ctrl @ 10000nM
T15 construct: purchased DiscoverX KINOMEscan

LRRK2(G2019S) = target: T16, LRRK2(G2019S) (Homo sapiens, UniProt Q5S007, G2019S); test: KINOMEscan; format: binding; settings: read-out: %Ctrl @ 10000nM
T16 construct: purchased DiscoverX KINOMEscan

FLT3(R834Q) = target: T17, FLT3(R834Q) (Homo sapiens, UniProt P36888, R834Q); test: KINOMEscan; format: binding; settings: read-out: %Ctrl @ 10000nM
T17 construct: purchased DiscoverX KINOMEscan

PIM1 = target: T18, PIM1 (Homo sapiens, UniProt P11309); test: KINOMEscan; format: binding; settings: read-out: %Ctrl @ 10000nM
T18 construct: purchased DiscoverX KINOMEscan

MAP3K2 = target: T19, MAP3K2 (Homo sapiens, UniProt Q9Y2U5); test: KINOMEscan; format: binding; settings: read-out: %Ctrl @ 10000nM
T19 construct: purchased DiscoverX KINOMEscan

MST2 = target: T20, MST2 (Homo sapiens, UniProt Q13188); test: KINOMEscan; format: binding; settings: read-out: %Ctrl @ 10000nM
T20 construct: purchased DiscoverX KINOMEscan

BRAF = target: T21, BRAF (Homo sapiens, UniProt P15056); test: KINOMEscan; format: binding; settings: read-out: %Ctrl @ 10000nM
T21 construct: purchased DiscoverX KINOMEscan

STK39 = target: T22, STK39 (Homo sapiens, UniProt Q9UEW8); test: KINOMEscan; format: binding; settings: read-out: %Ctrl @ 10000nM
T22 construct: purchased DiscoverX KINOMEscan

ABL2 = target: T23, ABL2 (Homo sapiens, UniProt P42684); test: KINOMEscan; format: binding; settings: read-out: %Ctrl @ 10000nM
T23 construct: purchased DiscoverX KINOMEscan

TBK1 = target: T24, TBK1 (Homo sapiens, UniProt Q9UHD2); test: KINOMEscan; format: binding; settings: read-out: %Ctrl @ 10000nM
T24 construct: purchased DiscoverX KINOMEscan

PRKCQ = target: T25, PRKCQ (Homo sapiens, UniProt Q04759); test: KINOMEscan; format: binding; settings: read-out: %Ctrl @ 10000nM
T25 construct: purchased DiscoverX KINOMEscan

PIKFYVE = target: T26, PIKFYVE (Homo sapiens, UniProt Q9Y2I7); test: KINOMEscan; format: binding; settings: read-out: %Ctrl @ 10000nM
T26 construct: purchased DiscoverX KINOMEscan
T26 sequence (Q9Y2I7 whole entry): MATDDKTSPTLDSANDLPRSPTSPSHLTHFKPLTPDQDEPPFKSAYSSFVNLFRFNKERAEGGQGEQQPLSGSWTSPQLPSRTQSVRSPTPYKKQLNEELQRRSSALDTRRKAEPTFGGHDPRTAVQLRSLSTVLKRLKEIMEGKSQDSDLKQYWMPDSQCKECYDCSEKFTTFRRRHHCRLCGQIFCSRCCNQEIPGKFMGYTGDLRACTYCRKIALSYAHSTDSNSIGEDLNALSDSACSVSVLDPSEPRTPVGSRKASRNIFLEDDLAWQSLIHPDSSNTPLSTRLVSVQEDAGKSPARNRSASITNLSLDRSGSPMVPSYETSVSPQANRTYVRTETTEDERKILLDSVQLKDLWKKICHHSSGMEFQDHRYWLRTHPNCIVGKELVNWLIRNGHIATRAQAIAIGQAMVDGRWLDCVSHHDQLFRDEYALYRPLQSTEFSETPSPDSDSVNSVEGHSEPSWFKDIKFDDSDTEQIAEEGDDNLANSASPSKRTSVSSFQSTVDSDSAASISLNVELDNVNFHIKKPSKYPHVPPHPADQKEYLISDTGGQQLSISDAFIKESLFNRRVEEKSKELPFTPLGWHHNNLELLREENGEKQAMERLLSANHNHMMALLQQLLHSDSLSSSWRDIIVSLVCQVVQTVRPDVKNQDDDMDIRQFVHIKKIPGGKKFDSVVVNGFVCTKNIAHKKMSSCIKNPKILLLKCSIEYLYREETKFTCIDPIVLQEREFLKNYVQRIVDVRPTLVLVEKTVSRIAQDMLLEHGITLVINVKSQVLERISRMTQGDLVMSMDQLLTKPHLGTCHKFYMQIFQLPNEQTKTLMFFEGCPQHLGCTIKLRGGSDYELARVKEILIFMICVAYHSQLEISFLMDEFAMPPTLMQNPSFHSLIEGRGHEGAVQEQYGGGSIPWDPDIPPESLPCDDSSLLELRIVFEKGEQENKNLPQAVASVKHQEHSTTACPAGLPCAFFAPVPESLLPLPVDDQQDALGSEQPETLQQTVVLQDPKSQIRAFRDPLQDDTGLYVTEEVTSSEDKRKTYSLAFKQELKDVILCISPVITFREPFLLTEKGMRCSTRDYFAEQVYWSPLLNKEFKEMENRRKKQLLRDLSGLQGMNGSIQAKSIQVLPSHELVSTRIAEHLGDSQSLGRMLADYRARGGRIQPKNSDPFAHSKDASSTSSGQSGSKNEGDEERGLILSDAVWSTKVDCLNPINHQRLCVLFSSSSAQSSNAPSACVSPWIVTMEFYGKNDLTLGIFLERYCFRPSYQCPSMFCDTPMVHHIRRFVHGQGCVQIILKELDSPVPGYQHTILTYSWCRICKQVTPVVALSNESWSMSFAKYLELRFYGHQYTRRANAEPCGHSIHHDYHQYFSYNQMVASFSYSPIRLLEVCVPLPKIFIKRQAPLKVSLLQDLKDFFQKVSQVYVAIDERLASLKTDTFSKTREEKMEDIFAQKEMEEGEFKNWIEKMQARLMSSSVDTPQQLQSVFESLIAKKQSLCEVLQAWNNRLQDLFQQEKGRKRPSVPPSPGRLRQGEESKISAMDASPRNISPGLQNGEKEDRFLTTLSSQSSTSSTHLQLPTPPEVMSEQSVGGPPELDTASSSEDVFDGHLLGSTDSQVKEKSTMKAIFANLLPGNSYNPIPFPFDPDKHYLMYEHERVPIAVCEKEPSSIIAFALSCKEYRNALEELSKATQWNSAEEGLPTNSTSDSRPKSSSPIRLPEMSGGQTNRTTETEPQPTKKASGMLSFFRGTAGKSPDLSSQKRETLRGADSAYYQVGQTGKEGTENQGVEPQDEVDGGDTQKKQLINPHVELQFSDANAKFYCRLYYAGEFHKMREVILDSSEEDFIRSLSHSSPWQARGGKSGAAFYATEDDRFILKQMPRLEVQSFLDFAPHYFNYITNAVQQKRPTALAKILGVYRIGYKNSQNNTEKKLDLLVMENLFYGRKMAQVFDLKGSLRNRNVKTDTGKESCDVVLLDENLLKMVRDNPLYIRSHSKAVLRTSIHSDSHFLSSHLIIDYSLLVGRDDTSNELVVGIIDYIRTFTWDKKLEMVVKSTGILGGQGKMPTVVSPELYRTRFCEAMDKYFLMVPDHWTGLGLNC

TNK1 = target: T27, TNK1 (Homo sapiens, UniProt Q13470); test: KINOMEscan; format: binding; settings: read-out: %Ctrl @ 10000nM
T27 construct: purchased DiscoverX KINOMEscan

LIMK1 = target: T28, LIMK1 (Homo sapiens, UniProt P53667); test: KINOMEscan; format: binding; settings: read-out: %Ctrl @ 10000nM
T28 construct: purchased DiscoverX KINOMEscan
T28 sequence (P53667 whole entry): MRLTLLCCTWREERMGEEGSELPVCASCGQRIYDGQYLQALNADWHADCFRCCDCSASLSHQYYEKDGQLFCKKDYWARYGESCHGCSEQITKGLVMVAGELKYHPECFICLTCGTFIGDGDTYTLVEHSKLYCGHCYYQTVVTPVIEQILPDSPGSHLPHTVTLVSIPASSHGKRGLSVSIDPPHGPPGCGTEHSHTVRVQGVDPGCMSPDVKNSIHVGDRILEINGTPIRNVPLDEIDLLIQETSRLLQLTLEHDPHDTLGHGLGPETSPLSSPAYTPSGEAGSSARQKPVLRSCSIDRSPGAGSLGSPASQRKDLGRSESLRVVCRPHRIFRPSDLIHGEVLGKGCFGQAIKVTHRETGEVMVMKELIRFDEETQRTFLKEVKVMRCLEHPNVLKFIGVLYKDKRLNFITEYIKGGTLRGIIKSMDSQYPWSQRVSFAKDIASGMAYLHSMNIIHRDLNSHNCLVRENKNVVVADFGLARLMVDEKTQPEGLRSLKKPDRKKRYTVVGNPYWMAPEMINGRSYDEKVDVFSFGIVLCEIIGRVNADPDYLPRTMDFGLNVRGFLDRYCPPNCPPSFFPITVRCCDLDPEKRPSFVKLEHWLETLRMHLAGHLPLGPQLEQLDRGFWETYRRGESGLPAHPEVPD

ULK3 = target: T29, ULK3 (Homo sapiens, UniProt Q6PHR2); test: KINOMEscan; format: binding; settings: read-out: %Ctrl @ 10000nM
T29 construct: DNA label for qPCR (T7 phage fusion or DNA tag); purchased DiscoverX scanMAX; host or cells: E. coli BL21-derived (T7 phage) or HEK-293

ACVR2A = target: T30, ACVR2A (Homo sapiens, UniProt P27037); test: KINOMEscan; format: binding; settings: read-out: %Ctrl @ 10000nM
T30 construct: purchased DiscoverX KINOMEscan

EGFR(L858R,T790M) = target: T31, EGFR(L858R,T790M) (Homo sapiens, UniProt P00533, L858R/T790M); test: KINOMEscan; format: binding; settings: read-out: %Ctrl @ 10000nM
T31 construct: purchased DiscoverX KINOMEscan

MAP3K15 = target: T32, MAP3K15 (Homo sapiens, UniProt Q6ZN16); test: KINOMEscan; format: binding; settings: read-out: %Ctrl @ 10000nM
T32 construct: purchased DiscoverX KINOMEscan

CHEK2 = target: T33, CHEK2 (Homo sapiens, UniProt O96017); test: KINOMEscan; format: binding; settings: read-out: %Ctrl @ 10000nM
T33 construct: purchased DiscoverX KINOMEscan

DMPK2 = target: T34, DMPK2 (Homo sapiens, UniProt Q6DT37); test: KINOMEscan; format: binding; settings: read-out: %Ctrl @ 10000nM
T34 construct: purchased DiscoverX KINOMEscan

PFPK5(P.falciparum) = target: T35, PFPK5(P.falciparum) (Plasmodium falciparum, UniProt P61075); test: KINOMEscan; format: binding; settings: read-out: %Ctrl @ 10000nM
T35 construct: purchased DiscoverX KINOMEscan
T35 sequence (P61075 whole entry): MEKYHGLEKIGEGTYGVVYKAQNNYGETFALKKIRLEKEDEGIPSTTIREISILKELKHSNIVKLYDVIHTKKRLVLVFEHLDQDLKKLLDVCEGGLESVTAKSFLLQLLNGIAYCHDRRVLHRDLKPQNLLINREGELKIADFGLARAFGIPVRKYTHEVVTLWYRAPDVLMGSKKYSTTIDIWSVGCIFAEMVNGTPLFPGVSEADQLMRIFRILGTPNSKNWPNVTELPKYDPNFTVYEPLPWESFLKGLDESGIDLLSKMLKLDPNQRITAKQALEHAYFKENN

CSK = target: T36, CSK (Homo sapiens, UniProt P41240); test: KINOMEscan; format: binding; settings: read-out: %Ctrl @ 10000nM
T36 construct: purchased DiscoverX KINOMEscan

PKN2 = target: T37, PKN2 (Homo sapiens, UniProt Q16513); test: KINOMEscan; format: binding; settings: read-out: %Ctrl @ 10000nM
T37 construct: purchased DiscoverX KINOMEscan
T37 sequence (Q16513 whole entry): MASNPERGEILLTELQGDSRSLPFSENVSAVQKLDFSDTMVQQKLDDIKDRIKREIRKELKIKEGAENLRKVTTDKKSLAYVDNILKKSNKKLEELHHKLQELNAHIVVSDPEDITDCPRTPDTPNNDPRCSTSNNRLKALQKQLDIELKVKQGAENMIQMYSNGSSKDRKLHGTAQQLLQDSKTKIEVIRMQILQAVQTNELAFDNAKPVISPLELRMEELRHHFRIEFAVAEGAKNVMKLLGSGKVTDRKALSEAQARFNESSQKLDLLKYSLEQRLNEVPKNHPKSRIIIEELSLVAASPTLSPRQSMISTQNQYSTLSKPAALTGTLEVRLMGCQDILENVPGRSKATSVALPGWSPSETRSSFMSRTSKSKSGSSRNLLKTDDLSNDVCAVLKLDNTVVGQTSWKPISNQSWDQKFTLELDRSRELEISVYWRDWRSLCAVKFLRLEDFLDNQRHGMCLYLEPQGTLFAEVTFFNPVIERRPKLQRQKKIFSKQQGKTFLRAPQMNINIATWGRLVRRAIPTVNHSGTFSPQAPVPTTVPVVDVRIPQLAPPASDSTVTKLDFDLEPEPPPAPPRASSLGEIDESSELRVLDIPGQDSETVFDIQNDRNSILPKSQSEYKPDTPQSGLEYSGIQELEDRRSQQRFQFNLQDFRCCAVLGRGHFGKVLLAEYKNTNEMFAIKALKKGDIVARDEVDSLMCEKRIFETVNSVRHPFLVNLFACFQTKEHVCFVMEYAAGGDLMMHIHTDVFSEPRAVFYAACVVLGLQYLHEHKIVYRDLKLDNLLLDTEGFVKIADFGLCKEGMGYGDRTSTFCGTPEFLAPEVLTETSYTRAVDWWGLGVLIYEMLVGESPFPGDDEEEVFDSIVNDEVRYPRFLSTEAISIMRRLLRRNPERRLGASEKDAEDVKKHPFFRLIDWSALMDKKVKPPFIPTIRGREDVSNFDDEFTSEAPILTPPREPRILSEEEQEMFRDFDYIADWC

TEC = target: T38, TEC (Homo sapiens, UniProt P42680); test: KINOMEscan; format: binding; settings: read-out: %Ctrl @ 10000nM
T38 construct: purchased DiscoverX KINOMEscan

Protein binding = settings: mouse
BRAF(V600E) = target: T39, BRAF(V600E) (Homo sapiens, UniProt P15056, V600E); test: KINOMEscan; format: binding; settings: read-out: %Ctrl @ 10000nM
T39 construct: purchased DiscoverX KINOMEscan

CASK = target: T40, CASK (Homo sapiens, UniProt O14936); test: KINOMEscan; format: binding; settings: read-out: %Ctrl @ 10000nM
T40 construct: purchased DiscoverX KINOMEscan

Compound: CC(C)c1ccc(CC(=O)N2CCN(c3ccc(C#N)nn3)CC2)cc1 [PZ-2891, 6-(4-(2-(4-isopropylphenyl)acetyl)piperazin-1-yl)pyridazine-3-carbonitrile]
- remaining binding at 10 µM (ZAK): 88%
- remaining binding at 10 µM (ASK1): 74%
- remaining binding at 10 µM (FLT1): 100%
- remaining binding at 10 µM (TRKB): 100%
- remaining binding at 10 µM (p38-delta): 76%
- remaining binding at 10 µM [1]: 100%
- remaining binding at 10 µM (CAMK4): 89%
- remaining binding at 10 µM (INSRR): 82%
- remaining binding at 10 µM (ACVR2B): 100%
- remaining binding at 10 µM (SGK3): 71%
- remaining binding at 10 µM (EPHB2): 82%
- remaining binding at 10 µM (EPHB6): 68%
- remaining binding at 10 µM (CDC2L1): 95%
- remaining binding at 10 µM (TAOK3): 95%
- remaining binding at 10 µM (CAMK2A): 98%
- remaining binding at 10 µM (LRRK2(G2019S)): 100%
- remaining binding at 10 µM (FLT3(R834Q)): 100%
- remaining binding at 10 µM (PIM1): 93%
- remaining binding at 10 µM (MAP3K2): 96%
- remaining binding at 10 µM (MST2): 92%
- remaining binding at 10 µM (BRAF): 100%
- remaining binding at 10 µM (STK39): 70%
- remaining binding at 10 µM (ABL2): 96%
- remaining binding at 10 µM (TBK1): 60%
- remaining binding at 10 µM (PRKCQ): 100%
- remaining binding at 10 µM (PIKFYVE): 72%
- remaining binding at 10 µM (TNK1): 100%
- remaining binding at 10 µM (LIMK1): 87%
- remaining binding at 10 µM (ULK3): 89%
- remaining binding at 10 µM (ACVR2A): 100%
- remaining binding at 10 µM (EGFR(L858R,T790M)): 98%
- remaining binding at 10 µM (MAP3K15): 92%
- remaining binding at 10 µM (CHEK2): 79%
- remaining binding at 10 µM (DMPK2): 93%
- remaining binding at 10 µM (PFPK5(P.falciparum)): 99%
- remaining binding at 10 µM (CSK): 97%
- remaining binding at 10 µM (PKN2): 94%
- remaining binding at 10 µM (TEC): 79%
- fraction unbound (Protein binding): 0.08
- remaining binding at 10 µM (BRAF(V600E)): 100%
- remaining binding at 10 µM (CASK): 85%
